Assay [1] concerns the target T1, Carbonic anhydrase 14 (Homo sapiens, UniProt Q9ULX7). Briefly: Inhibition of human recombinant carbonic anhydrase 14 preincubated for 15 mins to 72 hrs measured after 15 mins by stopped flow CO2 hydration method.
The target in assay [2] is T2, Carbonic anhydrase 2 (Homo sapiens, UniProt P00918). Briefly: Inhibition of human recombinant carbonic anhydrase 2 preincubated for 15 mins to 72 hrs measured after 6 hrs by stopped flow CO2 hydration method.
Assay [3] deals with T3, Carbonic anhydrase 7 (Homo sapiens, UniProt P43166). The experiment in a line: Inhibition of human recombinant carbonic anhydrase 7 preincubated for 15 mins to 72 hrs measured after 6 hrs by stopped flow CO2 hydration method.
T3 sequence (P43166 whole entry): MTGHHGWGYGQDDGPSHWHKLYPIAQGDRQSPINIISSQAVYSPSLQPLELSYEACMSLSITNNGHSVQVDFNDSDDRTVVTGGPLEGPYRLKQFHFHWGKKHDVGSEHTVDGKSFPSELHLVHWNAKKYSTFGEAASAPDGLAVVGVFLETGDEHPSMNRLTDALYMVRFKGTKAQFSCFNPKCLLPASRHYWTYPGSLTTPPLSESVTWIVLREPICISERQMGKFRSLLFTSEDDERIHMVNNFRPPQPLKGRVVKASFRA
Assay [4] deals with T4, Carbonic anhydrase 9 (Homo sapiens, UniProt Q16790). The experiment in a line: Inhibition of human recombinant carbonic anhydrase 9 preincubated for 15 mins to 72 hrs measured after 15 mins by stopped flow CO2 hydration method.
Assay [5] has as its target T2, Carbonic anhydrase 2. The experiment in a line: Inhibition of human recombinant carbonic anhydrase 2 preincubated for 15 mins to 72 hrs measured after 15 mins by stopped flow CO2 hydration method.
Assay [6] addresses T5, Carbonic anhydrase 1 (Homo sapiens, UniProt P00915). The experiment in a line: Inhibition of human recombinant carbonic anhydrase 1 preincubated for 15 mins to 72 hrs measured after 6 hrs by stopped flow CO2 hydration method.
The target in assay [7] is T6, Carbonic anhydrase 5B, mitochondrial (Homo sapiens, UniProt Q9Y2D0). Briefly: Inhibition of human recombinant carbonic anhydrase 5B preincubated for 15 mins to 72 hrs measured after 15 mins by stopped flow CO2 hydration method.
T6 sequence (Q9Y2D0 whole entry): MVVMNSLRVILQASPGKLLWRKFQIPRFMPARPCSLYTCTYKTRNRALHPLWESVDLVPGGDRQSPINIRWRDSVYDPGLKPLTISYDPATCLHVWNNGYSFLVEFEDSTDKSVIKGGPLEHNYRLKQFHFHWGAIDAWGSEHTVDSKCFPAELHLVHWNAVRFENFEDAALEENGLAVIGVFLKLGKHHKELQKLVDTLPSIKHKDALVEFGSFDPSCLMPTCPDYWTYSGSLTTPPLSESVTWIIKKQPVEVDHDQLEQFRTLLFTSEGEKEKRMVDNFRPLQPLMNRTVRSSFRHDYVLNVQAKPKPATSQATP
The target of assay [8] is T6, Carbonic anhydrase 5B, mitochondrial. Briefly: Inhibition of human recombinant carbonic anhydrase 5B preincubated for 15 mins to 72 hrs measured after 6 hrs by stopped flow CO2 hydration method.
The target in assay [9] is T7, Carbonic anhydrase 6 (Homo sapiens, UniProt P23280). Briefly: Inhibition of human recombinant carbonic anhydrase 6 preincubated for 15 mins to 72 hrs measured after 6 hrs by stopped flow CO2 hydration method.
T7 sequence (P23280 whole entry): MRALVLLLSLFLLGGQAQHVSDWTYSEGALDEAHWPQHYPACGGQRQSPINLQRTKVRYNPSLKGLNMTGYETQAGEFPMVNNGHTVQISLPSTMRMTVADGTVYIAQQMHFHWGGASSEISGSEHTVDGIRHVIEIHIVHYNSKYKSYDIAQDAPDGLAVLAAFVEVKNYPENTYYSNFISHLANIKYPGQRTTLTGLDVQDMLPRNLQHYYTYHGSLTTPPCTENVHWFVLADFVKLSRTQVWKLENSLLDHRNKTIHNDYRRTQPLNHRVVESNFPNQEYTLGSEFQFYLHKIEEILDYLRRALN
Assay [10] addresses T1, Carbonic anhydrase 14. Briefly: Inhibition of human recombinant carbonic anhydrase 14 preincubated for 15 mins to 72 hrs measured after 6 hrs by stopped flow CO2 hydration method.
Assay [11] has as its target T4, Carbonic anhydrase 9. Briefly: Inhibition of human recombinant carbonic anhydrase 9 preincubated for 15 mins to 72 hrs measured after 6 hrs by stopped flow CO2 hydration method.
The target of assay [12] is T8, Carbonic anhydrase 3 (Homo sapiens, UniProt P07451). The experiment in a line: Inhibition of human recombinant carbonic anhydrase 3 preincubated for 15 mins to 72 hrs measured after 15 mins by stopped flow CO2 hydration method.
T8 sequence (P07451 whole entry): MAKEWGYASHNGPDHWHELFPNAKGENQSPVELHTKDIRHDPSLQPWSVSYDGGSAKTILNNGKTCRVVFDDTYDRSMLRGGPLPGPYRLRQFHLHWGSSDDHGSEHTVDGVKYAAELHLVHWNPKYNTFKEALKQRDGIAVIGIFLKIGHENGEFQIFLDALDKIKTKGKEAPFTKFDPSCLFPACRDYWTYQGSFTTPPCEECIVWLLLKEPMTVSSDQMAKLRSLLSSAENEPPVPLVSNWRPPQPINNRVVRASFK
The target in assay [13] is T7, Carbonic anhydrase 6. The experiment in a line: Inhibition of human recombinant carbonic anhydrase 6 preincubated for 15 mins to 72 hrs measured after 15 mins by stopped flow CO2 hydration method.
For assay [14], the target named is T8, Carbonic anhydrase 3. Briefly: Inhibition of human recombinant carbonic anhydrase 3 preincubated for 15 mins to 72 hrs measured after 6 hrs by stopped flow CO2 hydration method.
In assay [15] the target is T9, Carbonic anhydrase 5A, mitochondrial (Homo sapiens, UniProt P35218). The experiment in a line: Inhibition of human recombinant carbonic anhydrase 5A preincubated for 15 mins to 72 hrs measured after 15 mins by stopped flow CO2 hydration method.
T9 sequence (P35218 whole entry): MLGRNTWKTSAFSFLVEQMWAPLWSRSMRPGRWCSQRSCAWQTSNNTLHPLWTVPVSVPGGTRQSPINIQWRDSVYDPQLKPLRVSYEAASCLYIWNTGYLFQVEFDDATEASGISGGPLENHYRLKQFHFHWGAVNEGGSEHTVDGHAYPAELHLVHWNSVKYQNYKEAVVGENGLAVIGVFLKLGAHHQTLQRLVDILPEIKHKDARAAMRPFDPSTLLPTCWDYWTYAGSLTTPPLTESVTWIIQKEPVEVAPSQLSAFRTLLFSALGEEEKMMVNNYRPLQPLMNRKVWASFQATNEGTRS
Assay [16] addresses T10, Carbonic anhydrase 13 (Homo sapiens, UniProt Q8N1Q1). The experiment in a line: Inhibition of human recombinant carbonic anhydrase 13 preincubated for 15 mins to 72 hrs measured after 15 mins by stopped flow CO2 hydration method.
For assay [17], the target named is T5, Carbonic anhydrase 1. The experiment in a line: Inhibition of human recombinant carbonic anhydrase 1 preincubated for 15 mins to 72 hrs measured after 15 mins by stopped flow CO2 hydration method.
Assay [18] concerns the target T11, Carbonic anhydrase 12 (Homo sapiens, UniProt O43570). The experiment in a line: Inhibition of human recombinant carbonic anhydrase 12 preincubated for 15 mins to 72 hrs measured after 15 mins by stopped flow CO2 hydration method.
The target in assay [19] is T12, Carbonic anhydrase 4 (Homo sapiens, UniProt P22748). The experiment in a line: Inhibition of human recombinant carbonic anhydrase 4 preincubated for 15 mins to 72 hrs measured after 15 mins by stopped flow CO2 hydration method.
T12 sequence (P22748 whole entry): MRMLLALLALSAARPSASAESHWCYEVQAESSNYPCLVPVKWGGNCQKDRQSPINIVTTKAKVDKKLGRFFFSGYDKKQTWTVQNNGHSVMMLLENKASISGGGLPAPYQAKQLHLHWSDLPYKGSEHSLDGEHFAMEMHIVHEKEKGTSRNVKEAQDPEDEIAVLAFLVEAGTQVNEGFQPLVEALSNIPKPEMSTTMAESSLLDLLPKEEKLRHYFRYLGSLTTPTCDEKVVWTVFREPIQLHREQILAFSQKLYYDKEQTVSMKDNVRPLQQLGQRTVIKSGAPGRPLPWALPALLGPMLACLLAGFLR
The target of assay [20] is T3, Carbonic anhydrase 7. Briefly: Inhibition of human recombinant carbonic anhydrase 7 preincubated for 15 mins to 72 hrs measured after 15 mins by stopped flow CO2 hydration method.
Assay [21] addresses T10, Carbonic anhydrase 13. Briefly: Inhibition of human recombinant carbonic anhydrase 13 preincubated for 15 mins to 72 hrs measured after 6 hrs by stopped flow CO2 hydration method.
For assay [22], the target named is T11, Carbonic anhydrase 12. Briefly: Inhibition of human recombinant carbonic anhydrase 12 preincubated for 15 mins to 72 hrs measured after 6 hrs by stopped flow CO2 hydration method.
The target in assay [23] is T9, Carbonic anhydrase 5A, mitochondrial. The experiment in a line: Inhibition of human recombinant carbonic anhydrase 5A preincubated for 15 mins to 72 hrs measured after 6 hrs by stopped flow CO2 hydration method.
The target of assay [24] is T12, Carbonic anhydrase 4. The experiment in a line: Inhibition of human recombinant carbonic anhydrase 4 preincubated for 15 mins to 72 hrs measured after 6 hrs by stopped flow CO2 hydration method.
The mark [25] stands for this setting: tested as the Zn salt or complex.

From ChEMBL document CHEMBL1955812, “New chemotypes acting as isozyme-selective carbonic anhydrase inhibitors with low affinity for the offtarget cytosolic isoform II” (Bioorg Med Chem Lett, 2012) come the findings set out here.

As a reminder, the Ki is the dissociation constant of the complex between target and ligand, obtained from inhibition or displacement.

T1 sequence (Q9ULX7 whole entry): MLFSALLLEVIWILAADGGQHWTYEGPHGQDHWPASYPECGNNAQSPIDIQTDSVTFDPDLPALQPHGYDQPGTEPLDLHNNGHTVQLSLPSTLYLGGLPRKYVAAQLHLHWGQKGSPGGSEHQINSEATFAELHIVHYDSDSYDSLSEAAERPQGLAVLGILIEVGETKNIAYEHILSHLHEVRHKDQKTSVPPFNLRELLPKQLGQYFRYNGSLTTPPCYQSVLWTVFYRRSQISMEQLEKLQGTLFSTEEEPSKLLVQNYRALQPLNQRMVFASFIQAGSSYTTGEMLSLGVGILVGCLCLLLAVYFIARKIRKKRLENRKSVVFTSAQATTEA
T10 sequence (Q8N1Q1 whole entry): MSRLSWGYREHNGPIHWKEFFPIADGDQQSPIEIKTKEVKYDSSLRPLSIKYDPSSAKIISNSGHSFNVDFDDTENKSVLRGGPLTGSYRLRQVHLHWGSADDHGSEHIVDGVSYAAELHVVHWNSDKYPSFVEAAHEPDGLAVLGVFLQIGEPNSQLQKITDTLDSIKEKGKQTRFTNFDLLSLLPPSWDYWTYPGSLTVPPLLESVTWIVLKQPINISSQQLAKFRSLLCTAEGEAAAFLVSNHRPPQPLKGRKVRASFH
T11 sequence (O43570 whole entry): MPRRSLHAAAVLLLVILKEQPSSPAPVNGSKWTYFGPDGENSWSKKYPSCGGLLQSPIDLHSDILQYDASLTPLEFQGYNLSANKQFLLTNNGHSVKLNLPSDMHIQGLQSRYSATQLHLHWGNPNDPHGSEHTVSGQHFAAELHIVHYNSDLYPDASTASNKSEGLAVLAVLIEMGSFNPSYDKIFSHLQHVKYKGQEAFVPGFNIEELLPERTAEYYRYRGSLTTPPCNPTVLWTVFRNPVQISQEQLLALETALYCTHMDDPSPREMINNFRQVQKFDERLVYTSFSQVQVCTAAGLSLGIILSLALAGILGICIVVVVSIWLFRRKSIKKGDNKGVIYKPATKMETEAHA
T5 sequence (P00915 whole entry): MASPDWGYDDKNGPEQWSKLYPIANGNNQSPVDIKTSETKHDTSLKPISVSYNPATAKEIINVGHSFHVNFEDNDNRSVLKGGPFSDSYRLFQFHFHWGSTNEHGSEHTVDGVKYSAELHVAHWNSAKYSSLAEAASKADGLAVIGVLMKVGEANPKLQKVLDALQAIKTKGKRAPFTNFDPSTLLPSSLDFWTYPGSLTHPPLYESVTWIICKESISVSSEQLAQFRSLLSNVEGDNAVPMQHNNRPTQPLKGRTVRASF

Take `Oc1ccc2ccccc2n1`: the inhibition constant (Ki) on Carbonic anhydrase 14 [1] was 0.036 µM; on Carbonic anhydrase 2 [2] it was > 200 µM; at Carbonic anhydrase 7 [3], 0.42 µM; at Carbonic anhydrase 9 [4] it was 0.082 µM; at Carbonic anhydrase 2 [5] it was > 200 µM; on Carbonic anhydrase 1 [6] it was 6.23 µM. Further, the Ki in [7] stood at 0.75 µM; in [8] it was 0.75 µM; on Carbonic anhydrase 6 [9], 0.033 µM; on Carbonic anhydrase 14 [10], 0.036 µM; at Carbonic anhydrase 9 [11], 0.082 µM; at Carbonic anhydrase 3 [12] it was 0.57 µM. Also, the Ki is 0.033 µM at Carbonic anhydrase 6 [13]; 0.57 µM at Carbonic anhydrase 3 [14]; 0.41 µM in assay [15]; 0.065 µM at Carbonic anhydrase 13 [16]; 6.23 µM on Carbonic anhydrase 1 [17]; 0.093 µM on Carbonic anhydrase 12 [18]. Moreover, the Ki at Carbonic anhydrase 4 [19] came out at 0.36 µM; on Carbonic anhydrase 7 [20], 0.42 µM; on Carbonic anhydrase 13 [21], 0.065 µM; at Carbonic anhydrase 12 [22], 0.093 µM; in assay [23], 0.41 µM; at Carbonic anhydrase 4 [24], 0.36 µM.
Turning to `Cc1cc(C)o/c(=N/O)c1`, the inhibitory constant (Ki) on Carbonic anhydrase 2 [2] was > 200 µM; on Carbonic anhydrase 7 [3], 0.27 µM; on Carbonic anhydrase 1 [6] it was 0.009 µM; at Carbonic anhydrase 9 [11], 0.016 µM; at Carbonic anhydrase 12 [22], 0.064 µM.
For `O/N=c1/ccc2ccccc2o1`, in that order: > 200 µM, 0.84 µM, 0.009 µM, 0.058 µM and 0.054 µM.
Take `CCOP(=S)(OCC)Oc1ccc2c(C)c(Cl)c(=O)oc2c1` [COUMAPHOS]: the Ki at Carbonic anhydrase 2 [2] was > 200 µM; at Carbonic anhydrase 7 [3], 4.68 µM; on Carbonic anhydrase 1 [6], 61.7 µM; in assay [8], 3.41 µM; at Carbonic anhydrase 6 [9], 2.23 µM; at Carbonic anhydrase 14 [10], 4.14 µM. For the same compound, the Ki was determined as 6.41 µM at Carbonic anhydrase 9 [11]; 4.62 µM at Carbonic anhydrase 3 [14]; 4.23 µM on Carbonic anhydrase 13 [21]; 9.52 µM on Carbonic anhydrase 12 [22]; 5.09 µM in assay [23]; 5.48 µM at Carbonic anhydrase 4 [24].
On to `O=c1ccc2ccccc2o1` [COUMARIN], for which the inhibition constant Ki at Carbonic anhydrase 7 [3] was > 200 µM; at Carbonic anhydrase 3 [14], > 200 µM; on Carbonic anhydrase 13 [21] it was > 200 µM; at Carbonic anhydrase 4 [24], 62.3 µM.
On to `[O-][n+]1ccccc1S` [PYRITHIONE ZINC], for which the Ki at Carbonic anhydrase 14 [1] (setting [25]) is 2.91 µM; at Carbonic anhydrase 2 [2] (setting [25]), > 200 µM; at Carbonic anhydrase 7 [3] (setting [25]), 7.76 µM; on Carbonic anhydrase 9 [4] (setting [25]), 1.72 µM; at Carbonic anhydrase 2 [5] (setting [25]), > 200 µM; on Carbonic anhydrase 1 [6] (setting [25]), > 200 µM. The Ki in assay [7] (setting [25]) is 3.55 µM; in [8] (setting [25]), 3.55 µM; on Carbonic anhydrase 6 [9] (setting [25]), 2.41 µM; on Carbonic anhydrase 14 [10] (setting [25]), 2.91 µM; on Carbonic anhydrase 9 [11] (setting [25]), 1.72 µM; at Carbonic anhydrase 3 [12] (setting [25]), 1.62 µM. In addition, the Ki at Carbonic anhydrase 6 [13] (setting [25]) is 2.41 µM; on Carbonic anhydrase 3 [14] (setting [25]), 1.62 µM; in [15] (setting [25]), 5.12 µM; at Carbonic anhydrase 13 [16] (setting [25]) it was 4.15 µM; at Carbonic anhydrase 1 [17] (setting [25]), > 200 µM; at Carbonic anhydrase 12 [18] (setting [25]), 5.4 µM. The Ki on Carbonic anhydrase 4 [19] (setting [25]) came to 6.13 µM; on Carbonic anhydrase 7 [20] (setting [25]) it was 7.76 µM; at Carbonic anhydrase 13 [21] (setting [25]), 4.15 µM; on Carbonic anhydrase 12 [22] (setting [25]) it was 5.4 µM; in [23] (setting [25]), 5.12 µM; on Carbonic anhydrase 4 [24] (setting [25]), 6.13 µM.
On to `O=C(S)c1ccccc1` [THIOBENZOIC ACID], for which the inhibition constant Ki at Carbonic anhydrase 2 [2] is 51 µM; at Carbonic anhydrase 7 [3], 5.74 µM; at Carbonic anhydrase 9 [4], 5.64 µM; at Carbonic anhydrase 2 [5], 51 µM; at Carbonic anhydrase 1 [6], 10.8 µM; on Carbonic anhydrase 9 [11], 5.64 µM. Also, the Ki on Carbonic anhydrase 1 [17] is 10.8 µM; at Carbonic anhydrase 12 [18], 2.77 µM; at Carbonic anhydrase 7 [20], 5.74 µM; at Carbonic anhydrase 12 [22] it was 2.77 µM.
